Laboratory results reported in ChEMBL document CHEMBL3217494, “Selective inhibition of EGFR and VEGFR2 tyrosine kinases controlled by a boronic acid substituent on 4-anilinoquinazolines” (Medchemcomm, 2010).
The source made the active and inactive calls. The calls are words filed in the database; no cut-off is given here.

Assays:
[1] = biological target: T1, Epidermal growth factor receptor (Homo sapiens, UniProt P00533); assay: Inhibition of EGFR catalytic domain (unknown origin) assessed as reduction of poly(Glu:Tyr) substrate phosphorylation after 20 mins by ELISA
T1 sequence (P00533 whole entry, the tested form may be a part): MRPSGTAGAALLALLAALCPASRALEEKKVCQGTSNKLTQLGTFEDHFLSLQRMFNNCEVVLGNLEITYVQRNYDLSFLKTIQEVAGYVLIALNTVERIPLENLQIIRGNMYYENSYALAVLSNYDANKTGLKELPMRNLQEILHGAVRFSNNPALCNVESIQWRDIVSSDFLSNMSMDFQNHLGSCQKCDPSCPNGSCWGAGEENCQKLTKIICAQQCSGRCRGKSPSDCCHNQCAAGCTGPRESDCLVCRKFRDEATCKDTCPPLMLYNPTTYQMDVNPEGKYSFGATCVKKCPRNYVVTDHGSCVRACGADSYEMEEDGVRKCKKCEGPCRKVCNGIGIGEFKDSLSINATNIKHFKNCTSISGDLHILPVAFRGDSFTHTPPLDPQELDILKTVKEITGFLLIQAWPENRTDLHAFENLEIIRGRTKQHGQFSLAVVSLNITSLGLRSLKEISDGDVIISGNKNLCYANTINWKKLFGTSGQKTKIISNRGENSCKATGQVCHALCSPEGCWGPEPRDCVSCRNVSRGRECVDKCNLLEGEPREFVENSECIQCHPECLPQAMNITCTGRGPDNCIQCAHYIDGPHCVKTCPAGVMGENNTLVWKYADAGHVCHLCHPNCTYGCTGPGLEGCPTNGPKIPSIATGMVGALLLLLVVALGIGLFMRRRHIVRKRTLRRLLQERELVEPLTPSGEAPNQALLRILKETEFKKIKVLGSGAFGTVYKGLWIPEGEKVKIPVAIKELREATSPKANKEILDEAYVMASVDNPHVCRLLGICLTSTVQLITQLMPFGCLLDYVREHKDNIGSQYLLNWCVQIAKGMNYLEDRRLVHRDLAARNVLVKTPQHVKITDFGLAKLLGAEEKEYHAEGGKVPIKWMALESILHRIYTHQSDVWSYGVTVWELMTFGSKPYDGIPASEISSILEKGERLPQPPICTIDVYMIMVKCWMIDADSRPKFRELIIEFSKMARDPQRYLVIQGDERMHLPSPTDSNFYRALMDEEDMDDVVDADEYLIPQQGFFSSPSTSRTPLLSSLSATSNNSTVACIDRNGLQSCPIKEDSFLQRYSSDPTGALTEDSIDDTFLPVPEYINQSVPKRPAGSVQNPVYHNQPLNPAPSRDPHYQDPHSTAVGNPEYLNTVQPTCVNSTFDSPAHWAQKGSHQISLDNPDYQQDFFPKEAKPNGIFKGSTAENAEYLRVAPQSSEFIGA

[2] = biological target: Receptor tyrosine-protein kinase erbB-2 (Homo sapiens, UniProt P04626); assay: Inhibition of HER2 catalytic domain (unknown origin) assessed as reduction of poly(Glu:Tyr) substrate phosphorylation after 20 mins by ELISA
Receptor tyrosine-protein kinase erbB-2, sequence (P04626 whole entry, the tested form may be a part): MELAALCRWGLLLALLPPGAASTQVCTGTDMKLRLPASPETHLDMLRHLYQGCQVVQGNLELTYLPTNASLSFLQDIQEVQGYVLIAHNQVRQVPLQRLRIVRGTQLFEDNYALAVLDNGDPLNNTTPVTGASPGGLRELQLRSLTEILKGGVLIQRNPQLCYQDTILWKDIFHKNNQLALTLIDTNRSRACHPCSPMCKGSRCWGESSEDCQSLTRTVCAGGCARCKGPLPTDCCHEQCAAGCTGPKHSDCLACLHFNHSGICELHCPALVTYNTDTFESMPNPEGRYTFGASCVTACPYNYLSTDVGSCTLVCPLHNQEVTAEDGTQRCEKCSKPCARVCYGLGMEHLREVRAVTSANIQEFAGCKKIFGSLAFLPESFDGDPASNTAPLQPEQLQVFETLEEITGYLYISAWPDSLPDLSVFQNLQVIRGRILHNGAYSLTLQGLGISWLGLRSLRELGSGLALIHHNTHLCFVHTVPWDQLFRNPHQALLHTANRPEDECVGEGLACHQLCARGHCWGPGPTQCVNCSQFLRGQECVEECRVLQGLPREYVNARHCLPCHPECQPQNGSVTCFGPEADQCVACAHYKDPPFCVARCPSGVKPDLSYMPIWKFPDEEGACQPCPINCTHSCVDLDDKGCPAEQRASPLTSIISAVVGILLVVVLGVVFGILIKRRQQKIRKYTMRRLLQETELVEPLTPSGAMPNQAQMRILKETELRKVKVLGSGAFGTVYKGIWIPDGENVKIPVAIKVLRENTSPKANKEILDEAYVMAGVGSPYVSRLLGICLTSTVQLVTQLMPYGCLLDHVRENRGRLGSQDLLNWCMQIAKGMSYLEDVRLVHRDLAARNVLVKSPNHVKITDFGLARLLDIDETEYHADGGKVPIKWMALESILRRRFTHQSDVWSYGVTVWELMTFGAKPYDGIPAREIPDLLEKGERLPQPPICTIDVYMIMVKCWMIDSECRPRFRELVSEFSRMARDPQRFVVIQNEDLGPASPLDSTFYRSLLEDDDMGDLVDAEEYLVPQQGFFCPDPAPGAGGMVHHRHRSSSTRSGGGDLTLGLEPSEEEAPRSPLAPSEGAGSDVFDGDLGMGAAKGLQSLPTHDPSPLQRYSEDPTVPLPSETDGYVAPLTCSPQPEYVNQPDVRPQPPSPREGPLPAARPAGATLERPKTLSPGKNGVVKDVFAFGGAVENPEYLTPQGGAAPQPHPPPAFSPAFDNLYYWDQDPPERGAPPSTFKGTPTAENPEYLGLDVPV

[3] = biological target: Vascular endothelial growth factor receptor 1 (Homo sapiens, UniProt P17948); assay: Inhibition of Flt-1 catalytic domain (unknown origin) assessed as reduction of poly(Glu:Tyr) substrate phosphorylation after 20 mins by ELISA
Vascular endothelial growth factor receptor 1, sequence (P17948 whole entry, the tested form may be a part): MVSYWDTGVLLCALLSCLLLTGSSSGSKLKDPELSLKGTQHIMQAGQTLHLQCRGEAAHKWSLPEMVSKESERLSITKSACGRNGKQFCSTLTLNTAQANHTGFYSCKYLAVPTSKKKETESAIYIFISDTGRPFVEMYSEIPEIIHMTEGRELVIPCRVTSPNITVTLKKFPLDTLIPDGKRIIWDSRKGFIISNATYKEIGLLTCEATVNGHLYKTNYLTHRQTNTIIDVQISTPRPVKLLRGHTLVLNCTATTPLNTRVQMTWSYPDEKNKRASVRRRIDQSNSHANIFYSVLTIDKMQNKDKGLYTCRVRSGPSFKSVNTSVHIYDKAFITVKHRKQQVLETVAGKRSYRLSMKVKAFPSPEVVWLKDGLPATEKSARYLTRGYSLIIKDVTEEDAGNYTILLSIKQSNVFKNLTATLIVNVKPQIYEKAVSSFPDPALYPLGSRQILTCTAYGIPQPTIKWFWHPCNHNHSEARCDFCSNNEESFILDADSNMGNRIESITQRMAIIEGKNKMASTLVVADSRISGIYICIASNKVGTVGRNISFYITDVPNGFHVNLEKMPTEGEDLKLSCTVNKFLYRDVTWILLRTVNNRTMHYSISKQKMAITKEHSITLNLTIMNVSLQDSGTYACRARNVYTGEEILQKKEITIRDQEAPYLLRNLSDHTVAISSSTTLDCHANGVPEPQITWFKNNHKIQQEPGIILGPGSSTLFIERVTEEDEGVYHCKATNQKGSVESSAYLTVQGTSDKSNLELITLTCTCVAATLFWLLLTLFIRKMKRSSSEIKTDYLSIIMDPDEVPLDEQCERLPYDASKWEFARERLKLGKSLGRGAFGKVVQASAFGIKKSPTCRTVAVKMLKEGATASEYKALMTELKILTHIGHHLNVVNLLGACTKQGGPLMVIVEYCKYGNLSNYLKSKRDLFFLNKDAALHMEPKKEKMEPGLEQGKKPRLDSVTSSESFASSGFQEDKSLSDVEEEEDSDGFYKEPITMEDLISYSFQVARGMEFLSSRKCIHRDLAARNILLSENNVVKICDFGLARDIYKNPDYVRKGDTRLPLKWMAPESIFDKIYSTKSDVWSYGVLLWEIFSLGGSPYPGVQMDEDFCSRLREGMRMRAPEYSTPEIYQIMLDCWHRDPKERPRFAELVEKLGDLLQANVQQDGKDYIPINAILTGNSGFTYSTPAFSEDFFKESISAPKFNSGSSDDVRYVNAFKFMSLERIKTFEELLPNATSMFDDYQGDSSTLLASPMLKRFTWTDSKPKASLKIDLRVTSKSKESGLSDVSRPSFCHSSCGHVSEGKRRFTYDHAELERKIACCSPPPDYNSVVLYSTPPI

[4] = biological target: T2, Vascular endothelial growth factor receptor 2 (Homo sapiens, UniProt P35968); assay: Inhibition of KDR catalytic domain (unknown origin) assessed as reduction of poly(Glu:Tyr) substrate phosphorylation after 20 mins by ELISA
[5] = biological target: T1, Epidermal growth factor receptor; assay: Inhibition of EGF-induced EGFR autophosphorylation in human A431 cells at 1 uM by immunoblot analysis; assay type: cell-based; conditions: A-431
[6] = biological target: T1, Epidermal growth factor receptor; assay: Inhibition of EGFR in human A431 cells assessed as decrease in EGF-induced ERK phosphorylation at 1 uM by immunoblot analysis; assay type: cell-based; conditions: A-431
[7] = biological target: T1, Epidermal growth factor receptor; assay: Inhibition of EGFR in human A431 cells assessed as decrease in EGF-induced Akt phosphorylation at 1 uM by immunoblot analysis; assay type: cell-based; conditions: A-431
[8] = biological target: T2, Vascular endothelial growth factor receptor 2; assay: Inhibition of VEGF-induced KDR phosphorylation in human HUVEC cells at 1 uM by immunoblot analysis; assay type: cell-based

Structure (SMILES) | IC50 [1] | IC50 [2] | IC50 [3] | IC50 [4] | inhibition [5] | inhibition [6] | inhibition [7] | inhibition [8]
COc1cc2ncnc(Nc3ccc(F)c(Cl)c3)c2cc1B1OC(C)(C)C(C)(C)O1 | 520 nM | > 1000 nM | > 1000 nM | > 1000 nM | Active | Active | Active | –
COc1cc2ncnc(Nc3cccc(B(O)O)c3)c2cc1OC | > 1000 nM | > 1000 nM | > 1000 nM | 390 nM | inactive | inactive | inactive | inactive
COc1cc2ncnc(Nc3cccc(Cl)c3)c2cc1B1OC(C)(C)C(C)(C)O1 | 490 nM | > 1000 nM | > 1000 nM | > 1000 nM | Active | Active | Active | –
COc1cc2ncnc(Nc3ccc(F)c(Cl)c3)c2cc1B(O)O | 510 nM | > 1000 nM | > 1000 nM | > 1000 nM | Active | Active | Active | –
COCCOc1cc2ncnc(Nc3cccc(B(O)O)c3)c2cc1OCCOC | > 1000 nM | > 1000 nM | > 1000 nM | 190 nM | inactive | inactive | inactive | Active
CC1(C)OB(c2ccc3ncnc(Nc4cccc(Cl)c4)c3c2)OC1(C)C | 590 nM | > 1000 nM | > 1000 nM | > 1000 nM | Active | Active | Active | –
CC1(C)OB(c2ccc3ncnc(Nc4ccc(F)c(Cl)c4)c3c2)OC1(C)C | 570 nM | > 1000 nM | > 1000 nM | > 1000 nM | Active | Active | Active | –
OB(O)c1ccc2ncnc(Nc3ccc(F)c(Cl)c3)c2c1 | 800 nM | > 1000 nM | > 1000 nM | > 1000 nM | Active | Active | Active | –
O=C(Nc1cccc(C(F)(F)F)c1)c1ccccc1NCc1ccncc1 | – | > 1000 nM | – | – | – | – | – | –
COCCOc1cc2ncnc(Nc3ccc(B(O)O)cc3)c2cc1OC | > 1000 nM | > 1000 nM | > 1000 nM | 860 nM | inactive | inactive | inactive | Active
COCCOc1cc2ncnc(Nc3cccc(B(O)O)c3)c2cc1OC | > 1000 nM | > 1000 nM | > 1000 nM | 180 nM | inactive | inactive | inactive | Active
OB(O)c1ccc2ncnc(Nc3cccc(Cl)c3)c2c1 | 650 nM | > 1000 nM | > 1000 nM | > 1000 nM | Active | Active | Active | –
COc1cc2ncnc(Nc3ccc(B(O)O)cc3)c2cc1OC | > 1000 nM | > 1000 nM | > 1000 nM | 36 nM | inactive | inactive | inactive | inactive
COCCOc1cc2ncnc(Nc3ccc(B(O)O)cc3)c2cc1OCCOC | > 1000 nM | > 1000 nM | > 1000 nM | 37 nM | inactive | inactive | inactive | Active
COc1cc2ncnc(Nc3cccc(Cl)c3)c2cc1B(O)O | 460 nM | > 1000 nM | > 1000 nM | > 1000 nM | Active | Active | Active | –
